From PubChem BioAssay AID1259333 (Broad Institute, 2017) come the findings set out here.

Structures are written as SMILES. “And” between values parts separate entries of the source, which are not always exact repeats. Equal entries are not always repeated. The source made the active and inactive calls. How the calls were made is not given here; tested in parental BL2 cells. Bounds are passed on as bounds.

In the experiment the test system is cytotoxicity, CellTiter-Glo ATP luminescence. The experiment in a line: loss of cell viability by ATP content – CellTiter-Glo, cytotoxicity control, dose response (AID 1259333). (In general: In ATP-based viability assays light output follows the ATP content of the culture.)
One may read the AC50 as the concentration at which the activity in the assay is half-maximal. Regarding `CC(C)[C@H](CO)Nc1nc(Nc2cccc(Cl)c2)c2ncn(C(C)C)c2n1`, the AC50 is 2.86 µM.

On to `CNC(=S)NN=C(C)CCCC(C)=NNC(=S)NC`, for which the AC50 is 10.3 µM.

For `N=C(N)c1ccc(OCCCCCOc2ccc(C(=N)N)cc2)cc1`, the AC50 is > 20 µM (inactive).

On to `CC1OC(OC2C(O)CC(OC3C(O)CC(OC4CCC5(C)C(CCC6C5CCC5(C)C(C7=CC(=O)OC7)C(O)CC65O)C4)OC3C)OC2C)CC(O)C1O` (stereo unspecified), for which the AC50 was 0.625 µM.

Turning to `CC1OC(OC2CC(O)C3(CO)C4C(O)CC5(C)C(C6=CC(=O)OC6)CCC5(O)C4CCC3(O)C2)C(O)C(O)C1O` (stereo unspecified), the AC50 is 0.236 µM.

As for `COc1ccc(S(=O)(=O)Nc2ccc3c(c2)C(=O)N([C@H](C)CO)C[C@@H](C)[C@@H](CN(C)Cc2ccc(C(F)(F)F)cc2)OCCCC[C@H](C)O3)cc1`, the AC50 was > 20 µM (inactive).

For the compound `CC(=O)OC1CC2(O)C3CCC4CC(O)CCC4(C)C3CCC2(C)C1C1=CC(=O)OC1` (stereo unspecified), the AC50 was 0.559 µM.

For the compound `Cc1ccc(OCCn2cnc3c(N)ncnc32)cc1`, the AC50 is > 20 µM (inactive).

Turning to `C[C@@H]1CN([C@@H](C)CO)C(=O)c2c(c3ccccc3n2C)-c2ccccc2CO[C@H]1CN(C)S(=O)(=O)c1ccc([N+](=O)[O-])cc1`, the AC50 is > 20 µM (inactive).

Regarding `COc1ccc(C(=O)O/N=C2\C(=O)N(C)c3ccccc32)cc1`, the AC50 was 2 µM.

As for `C[C@@H]1CN([C@H](C)CO)C(=O)c2cc(NC(=O)Nc3cccc4ccccc34)ccc2O[C@@H](C)CCCCO[C@H]1CN(C)Cc1ccc(C(F)(F)F)cc1`, the AC50 was > 20 µM (inactive).

Take `O=C(COC(=O)c1ccccc1C(=O)c1ccc(Cl)c([N+](=O)[O-])c1)NC1CC1`: the AC50 is 2.45 µM.

In the case of `COc1ccc(CNCCC(c2ccc(F)cc2)c2ccc(OC(C)C)cc2)cc1OC` (stereo unspecified), the AC50 is 5.85 µM.

`C[C@@H]1C[C@@H]([C@H](O)CC2CC(=O)NC(=O)C2)C(=O)[C@@H](C)C1`: the AC50 is > 20 µM (inactive).

On to `COCC(=O)N1[C@H](C#N)[C@H](c2ccc(C#Cc3ccccc3F)cc2)[C@H]1CO`, for which the AC50 is 11.5 µM.

As for `C[C@H](CO)N1C[C@H](C)[C@@H](CN(C)Cc2ccc(Oc3ccccc3)cc2)Oc2c(NC(=O)CCC(F)(F)F)cccc2C1=O`, the AC50 is 6.84 µM.

`CCCNC(=O)N1[C@H](C#N)[C@@H](c2ccc(-c3cccc(OC)c3)cc2)[C@H]1CO`: the AC50 was > 20 µM (inactive).

As for `O=C1C=CC2C3C(=O)N(c4ccccc4)C(=O)C3C1N2Cc1ccccc1` (stereo unspecified), the AC50 was 8.98 µM.

Turning to `N#C[C@@H]1[C@H](c2ccc(C#CC3CCCCC3)cc2)[C@H](CO)N1C(=O)Nc1ccc(F)cc1`, the AC50 is > 20 µM (inactive).

In the case of `C1CCC(C(CC2CCCCN2)C2CCCCC2)CC1` (stereo unspecified), the AC50 was 2.37 µM.

In the case of `Cc1ccc(CN2CC(C(=O)Nc3ncc(C)s3)CC2=O)cc1` (stereo unspecified), the AC50 is > 20 µM (inactive).

`COc1ccc(S(=O)(=O)Nc2ccc3c(c2)C(=O)N([C@H](C)CO)C[C@@H](C)[C@H](CN(C)Cc2ccc(C(F)(F)F)cc2)OCCCC[C@@H](C)O3)cc1`: the AC50 was 8.94 µM.

As to `CCCNC(=O)N1[C@H](C#N)[C@H](c2ccc(C3=CCCCC3)cc2)[C@@H]1CO`, the AC50 was > 20 µM (inactive).

In the case of `CO[C@H]1CC(O[C@@H]2/C(C)=C/C[C@@H]3C[C@@H](C[C@]4(CC[C@H](C)[C@@H](C5CCCCC5)O4)O3)OC(=O)[C@@H]3C=C(C)/C(=N/O)[C@H]4OC/C(=C\C=C\[C@@H]2C)[C@]43O)O[C@@H](C)C1O` (stereo partly specified), the AC50 was 9.15 µM.

As for `CC(C)=CCc1c2c(c3occ(-c4ccc(O)c(O)c4)c(=O)c3c1O)C=CC(C)(C)O2`, the AC50 was 5.55 µM.

As to `C=C1CC(Cn2cc(Br)c(=O)[nH]c2=O)(c2ccc(-c3ccccc3)cc2)OC1=O` (stereo unspecified), the concentration at half-maximal activity (AC50) was 6.59 µM.

As to `Cc1ccc(-c2cc(C(=O)N3CC(C)OC(C)C3)c3ccccc3n2)o1` (stereo unspecified), the AC50 was > 20 µM (inactive).

For the compound `COc1ccc2c3c([nH]c2c1)[C@H](CO)N(C(=O)Nc1ccc(F)cc1)CC31CCN(C(=O)c2ccccc2F)CC1`, the concentration at half-maximal activity (AC50) was 8.44 µM.

`CC1=NNC(=O)C1Br` (stereo unspecified): the AC50 is 9.62 µM.

With `Cc1ccc(S(=O)(=O)C=CS(=O)(=O)c2ccc(C)cc2)cc1`, the AC50 is 3.97 µM.

Regarding `CCCNC(=O)N1[C@@H](C#N)[C@H](c2ccc(-c3cccc(OC)c3)cc2)[C@@H]1CO`, the AC50 is > 20 µM (inactive).

In the case of `CSc1ccc2c(c1)N(CCC1CCCCN1C)c1ccccc1S2` (stereo unspecified), the half-maximal activity concentration (AC50) is 8.67 µM.

In the case of `C[C@H]1O[C@@H](O[C@H]2[C@@H](O)C[C@H](O[C@H]3[C@@H](O)C[C@H](O[C@H]4CC[C@]5(C)C6CC[C@]7(C)[C@@H](C8=CC(=O)OC8)CC[C@]7(O)C6CC[C@@H]5C4)O[C@@H]3C)O[C@@H]2C)C[C@H](O)[C@@H]1O` (stereo partly specified), the AC50 was 2.2 µM.

On to `C[C@@H]1CN([C@@H](C)CO)C(=O)Cc2cc(NC(=O)Cc3cn(C)c4ccccc34)ccc2O[C@H]1CN(C)Cc1ccc(C(F)(F)F)cc1`, for which the AC50 is > 20 µM (inactive).

Take `CC(C)OC(=O)c1cn(Cc2c(F)cccc2F)c2sc(-c3ccc(NC(=O)C(C)C)cc3)c(CN(C)Cc3ccccc3)c2c1=O`: the AC50 was > 20 µM (inactive).

Take `CN1C(=O)/C(=N\OC(=O)c2cccc3ccccc23)c2ccccc21`: the AC50 was 4.04 µM.

Take `OC(c1cc(-c2cccc(Cl)c2)nc2ccccc12)C1CCCCN1` (stereo unspecified): the AC50 was 2.86 µM.

Turning to `CC(C)[C@H](N)C(=O)N[C@H]1CCC2C3CC=C4C[C@@H](O)CC[C@]4(C)C3CC[C@@]21C` (stereo partly specified), the half-maximal activity concentration (AC50) is 6.89 µM.

Take `COC(=O)C1=C(C(=O)OC)C2OC1c1cc3ccccc3cc12`: the AC50 is 2.65 µM.

Turning to `CCCC(=O)NC1=C(Cl)C(=O)c2ccccc2C1=O`, the AC50 was 1.12 µM.

Consider `C[C@H](CO)N1C[C@H](C)[C@H](CN(C)C(=O)Nc2cccc(Cl)c2Cl)OCc2ccccc2-c2c(n(C)c3ccccc23)C1=O`, for which the AC50 is 2.51 µM.

For the compound `Cc1cc(C(=O)COC(=O)c2ccco2)c(C)n1Cc1ccco1`, the AC50 is > 20 µM (inactive).

`COCC(C)n1c(C)cc(C(=O)COC(=O)c2cccn2C)c1C` (stereo unspecified): the AC50 is > 7 µM (inactive).

For the compound `CC[N+]1(C)CCC(O)(c2ccc(OC)cc2)C(C(=O)c2ccc(OC)cc2)C1` (stereo unspecified), the AC50 is 5.1 µM.

As for `Oc1c(Cl)cc(Cl)c(Cl)c1Cc1c(O)c(Cl)cc(Cl)c1Cl`, the AC50 was 10.2 µM.

Consider `Cc1ccc2c(=O)c3ccccc3n(CCCN)c2c1C`, for which the AC50 was 2.79 µM.

Turning to `CC12CCC3C(CCC4(O)CC(O)CCC34C=NO)C1(O)CCC2C1=COC(=O)C1` (stereo unspecified), the AC50 was 0.322 µM.

Take `COc1ccc(/C=C2/CCC(CN3CCOCC3)C2=O)cc1` (stereo unspecified): the AC50 was 7.4 µM.

Consider `N#Cc1cccc(-c2ccc(C3[C@H]4CNC[C@@H]3N4Cc3ccc4c(c3)OCO4)cc2)c1` (stereo partly specified), for which the AC50 was > 20 µM (inactive).

Consider `CNc1c2cccc(C)c2nc2c(C(=O)NCCN(C)C)cccc12`, for which the AC50 was 5.98 µM.

For `O=S(=O)(c1cccc2cnccc12)N1CCNCC1`, the AC50 was 7.09 µM.

As to `CCCCCCCCCCCCCCCC[n+]1ccccc1`, the AC50 is 1.55 µM.

Regarding `C[C@@H]1CN([C@@H](C)CO)C(=O)c2c(c3ccccc3n2C)-c2ccccc2CO[C@H]1CN(C)Cc1ccccc1`, the AC50 is 9.77 µM.

As for `CCCC(C)Sc1nc2c([nH]1)c(=S)n(C)c(=O)n2C` (stereo unspecified), the AC50 was 8.95 µM.

Regarding `COc1cccc2c1C(=O)c1c(O)c3c(c(O)c1C2=O)C[C@@](O)(C(C)=O)C[C@@H]3OC1CC(N)C(O)C(C)O1` (stereo partly specified), the AC50 is 2.72 µM.

On to `O=C(Nc1ccccn1)c1ccc(-c2ccccc2)cc1`, for which the AC50 is > 20 µM (inactive).

`N#C[C@@H]1[C@H](c2ccc(C#CC3CCCCC3)cc2)[C@@H](CO)N1S(=O)(=O)c1ccccc1`: the AC50 was 7.22 µM.

Regarding `[O-]C(=C(C(=S)Nc1cccc2ccccc12)[n+]1ccccc1)c1ccc2c(c1)OCCO2`, the AC50 is > 7 µM (inactive).

Consider `C[C@@H]1CCCCO[C@H](CN(C)Cc2ccc(C(F)(F)F)cc2)[C@@H](C)CN([C@@H](C)CO)C(=O)c2cc(NC(=O)Nc3cccc4ccccc34)ccc2O1`, for which the AC50 is 10.7 µM.

With `O=C1NC2C(=CC(O)C(O)C2O)c2cc3c(c(O)c21)OCO3` (stereo unspecified), the AC50 was 10 µM.

For the compound `O=C(C1CC1)N1C[C@@H]2N[C@H](C1)[C@@H]2c1ccc(-c2ccncc2)cc1`, the AC50 is > 20 µM (inactive).

As for `Cc1c(CCOC(=O)CC23CC4CC(CC(C)(C4)C2)C3)sc[n+]1CC(=O)c1ccccc1`, the AC50 is 5.88 µM.

Turning to `COc1ccc2c3c(n(C)c2c1)[C@@H](CO)N(C(=O)Nc1ccc(F)cc1)CC31CN(Cc2ccccc2F)C1`, the AC50 was > 20 µM (inactive).

For `CC(=O)Nc1ccc(Sc2ccc([N+](=O)[O-])o2)cc1`, the AC50 was 6.13 µM.

For the compound `O=C(c1ccc(Nc2nccc(-c3cc4ccccc4s3)n2)cc1)N1CCC(N2CCCC2)CC1`, the AC50 is 3.83 µM and 1.17 µM.

`NC(c1csc(NC(=O)Nc2cccc(Cl)c2)n1)c1ccccc1Cl` (stereo unspecified): the AC50 is > 20 µM (inactive).

Take `COc1ccc(/C=C\c2nc(=O)c3ccccc3o2)cc1`: the AC50 is 6.79 µM.

For `O=C1NC2C(O)C(O)C(O)C(O)C2c2cc3c(c(O)c21)OCO3` (stereo unspecified), the AC50 was 9.05 µM.

Regarding `COC(=O)c1nn(-c2ccc(-c3ccccc3)cc2)cc1O`, the AC50 is > 20 µM (inactive).

`CC1=C(C#N)c2nc(N)c(C#N)c(C)c2/C1=C\c1ccccc1`: the AC50 is 8.93 µM.

For the compound `CN(C)c1ccc(C=c2c3cc(O)ccc3n3c2cc(-c2ccccc2)[n+]3C)cc1`, the AC50 was 10.8 µM.

As to `c1cc(-c2cnn3cc(-c4ccc(OCCN5CCCCC5)cc4)cnc23)ccn1`, the AC50 was 1.44 µM.

As to `O=[N+]([O-])c1ccc(N2CCOCC2)c2c1no[n+]2[O-]`, the AC50 is 2.85 µM.

For `CC1OC(CC(=O)O)CC2=C1C(=O)c1c(O)cccc1C2=O` (stereo unspecified), the AC50 was 1.06 µM.

In the case of `O=C(c1ccc(-c2ccc([N+](=O)[O-])cc2)o1)N1CCCC(C(F)(F)F)C1` (stereo unspecified), the AC50 is > 20 µM (inactive).

Take `CCS(=O)(=O)N1Cc2ccccc2CC1C(=O)Nc1nc2ccccc2s1` (stereo unspecified): the AC50 was 5.74 µM.

Turning to `OCC1OC(n2cnc3cc(Cl)c(Cl)cc32)C(O)C1O` (stereo unspecified), the AC50 is > 20 µM (inactive).

`O=C(NCCC(c1ccccc1)c1ccco1)c1cccs1` (stereo unspecified): the AC50 is > 20 µM (inactive).

As for `COc1cc(/C=N/n2cnnc2)ccc1OC(=O)c1ccncc1`, the AC50 is 8.07 µM.

On to `Nc1cccc2nc3ccccc3cc12`, for which the AC50 was 1.96 µM.

`NS(=O)(=O)c1cc2c(cc1C(F)(F)F)NC(Cc1ccccc1)NS2(=O)=O` (stereo unspecified): the AC50 was > 20 µM (inactive).
